Laboratory results: US5399487A, “6-peptidylamino-1-naphthalenesulfonamides useful as fluorogenic proteolytic enzyme substrates” (Haematologic Technologies, Inc., priority 1993, dated 1995)

Columns and labels:
[1] = target: T1, factor VIIa (Homo sapiens, UniProt P08709); assay: Factor VIIa substrate hydrolysis in presence and absence of tissue factor (FIG. 2); type: biochemical
T1 construct: directly measure the enzymatic activity of factor VIIa in the presence and absence of tissue factor and phospholipid
T1 sequence (P08709 213-466 limits assumed): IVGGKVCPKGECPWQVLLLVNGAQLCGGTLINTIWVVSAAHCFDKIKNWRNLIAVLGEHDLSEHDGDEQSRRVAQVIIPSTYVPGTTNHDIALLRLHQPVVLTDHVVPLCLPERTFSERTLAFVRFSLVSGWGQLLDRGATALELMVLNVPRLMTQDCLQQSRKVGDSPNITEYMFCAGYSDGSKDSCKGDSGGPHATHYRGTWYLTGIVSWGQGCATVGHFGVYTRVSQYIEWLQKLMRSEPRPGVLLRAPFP
T1 sequence (P08709 61-212 limits assumed): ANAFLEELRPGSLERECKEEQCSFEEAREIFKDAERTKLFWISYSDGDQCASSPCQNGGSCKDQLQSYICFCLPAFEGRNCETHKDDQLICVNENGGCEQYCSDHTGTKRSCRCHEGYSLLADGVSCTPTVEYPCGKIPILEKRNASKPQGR
Description: (§1) When coupled to methanesulfonyl-D-leucinyl-glycinyl-arginine(Mes-D-Leu-Gly-Arg), 6-amino-1-(N,N-diethyl)napthalenesulfonamide the resulting substrate yielded significant reactivity with factor VIIa. This substrate was sufficiently reactive with factor VIIa to allow reliable quantitation of factor VIIa activity at concentrations of about 10^-9 M. Further, this substrate was useful for the measurement of factor VIIa activity when it was bound to its co-factor protein tissue factor. The interaction of tissue factor with factor VIIa enhanced the factor VIIa dependent substrate hydrolysis by 120 fold. Thus, the invention provides unique substrates suitable for measuring both the activity of factor VIIa directly and in complex reactions involving the interaction between tissue factor and factor VIIa.
(§2) The binding of factor VIIa to tissue factor was analyzed by factor VIIa substrate hydrolysis when complexed with tissue factor. Tissue factor was relipidated into PC or PCPS vesicles as described above. The final concentration of tissue factor and phospholipid used for all binding studies was 2 nM and 200 μM respectively. In control experiments where tissue factor was in excess, 50 nM tissue factor and 200 μM PCPS vesicles were used. Recombinant factor VIIa (0.5 to 20 nM) was added to assembled TF/phospholipid complex and incubated for 15 minutes at 37° C. in HBS. The reaction was started by the addition of substrate (40 μM final) and the rate of substrate hydrolysis as reported by an increase in fluorescent intensity was recorded as described above in Example 5. The instrument was standardized daily using a 1 μM stock of the 6-amino-1-(N,N-diethyl)napthalenesulfonamide in HBS at 37° C. as described above.
(§3) The increase in the rate of factor VIIa substrate hydrolysis, both in the presence and absence of tissue factor, is linear over the concentration range tested, as shown in FIG. 2. […] In FIG. 2, filled triangles represent the rate of substrate hydrolysis as a function of increasing factor VIIa concentrations with an excess of tissue factor ([…]) in the assay. […]

[2] = tested on: factor VIIa; assay: as above; type: biochemical; conditions: with vs without tissue factor
Description: as §1, §2, §3

factor VIIa concentration allowing reliable quantitation of factor VIIa activity [1]: about 10^-9 M
SMILES: CCN(CC)S(=O)(=O)c1cccc2cc(NC(=O)[C@H](CCCNC(=N)N)NC(=O)CNC(=O)[C@@H](CC(C)C)NS(C)(=O)=O)ccc12 [MesD-LPR-ANSN(C2 H5)2, 6-(Mes-D-Leu-Gly-Arg)amino-1-(N,N-diethyl)napththalenesulfonamide]
enhancement of factor VIIa dependent substrate hydrolysis by tissue factor ([2]; listed as 6-(Mes-D-Leu-Gly-Arg)amino-1-(N,N-diethyl)naphthalenesulfonamide): 120 fold
enhancement of factor VIIa dependent substrate hydrolysis by tissue factor ([2]; listed as factor VIIa substrate): > 100 fold
